Data from patent US12653895B2, “Therapeutic conjugates” (Totus Medicines Inc., priority 2019, dated 2026).

tested on: PI3-kinase; experiment: NanoBRET screening of ARCS in transfected HEK293 cells with washout (covalent binding to and inhibition of PI3-kinase); type: cell-based; details: NanoBRET binding assay; key headed Percent inhibition
Description: Human embryonic kidney 293-H (HEK 293, Gibco 293-H, #11631017) cell lines are maintained in Dulbecco's Modified Eagle Medium, high glucose, pyruvate (DMEM, Gibco, #11995065) supplemented with 10% fetal bovine serum (FBS, Gibco, #10082147) and 1× penicillin-streptomycin (100× solution, Gibco, #15140148) at 37° C. and 5% CO2 in a water-saturated incubator. Cell are trypsinized using 0.05% or 0.25% Trypsin-EDTA solution (Trypsin-EDTA, phenol red, Gibco, #25200056 (0.25%) or #25300054). Opti-MEM media supplemented with 10% fetal bovine serum (Opti-MEM I reduced serum media, no phenol red, Gibco, #11058021) is used for culturing cells overnight for NanoBRET readout experiments.
HEK293 cells are cultivated appropriately prior to assay. The medium from cell flask is removed via aspiration, washed 1× with PBS followed by aspiration, trypsinized, and cells are allowed to dissociate from the flask. Trypsin is neutralized using growth medium and cells are pelleted via centrifugation at 200×g for 5 minutes. The medium is aspirated and the cells are resuspended into a single cell suspension using Opti-MEM I supplemented with 10% FBS. The cell density is adjusted to 2×10^5/mL in Opti-MEM I supplemented with 10% FBS in a sterile, conical tube. The cells are transfected and aliquoted directly in a 96-well plate for the NanoBRET assay the next day, and therefore, the cells are cultured overnight in Opti-MEM. The cells are also transfected in bulk and dispensed into a 96-well plate to allow cells to adhere to the plate overnight, thereby enabling washout studies.
The lipid:DNA complexes are prepared as follows:
A 10 μg/mL solution of DNA is prepared in Opti-MEM without serum. This solution contains the following ratios of carrier DNA and DNA encoding NanoLuc fused to the biological target. Serial dilution steps may be warranted to accurately dilute the NanoLuc fusion DNA. Added, in order, the following reagents to a sterile polystyrene test tube: 1 mL of Opti-MEM without phenol red; 9.0 μg/mL of carrier DNA; 1.0 μg/mL of NanoLuc fusion DNA (for some targets, the amount is less). The reagents are mixed thoroughly.
30 μL of FuGENE HD is added into each mL of DNA mixture to form lipid:DNA complex. […] It is mixed by pipetting up and down 5-10 times and incubated at room temperature for 20 minutes to allow complexes to form. 1 part (e.g. 1 mL) of lipid:DNA complex is mixed with 20 parts (e.g. 20 mL) of HEK293 cells in suspension at 2×10^5/mL and mixed gently by pipetting up and down 5 times in a sterile, conical tube. Larger or smaller bulk transfections are scaled accordingly, using this ratio. […] is dispensed into a sterile, tissue-culture treated 96-well plate (20,000 cells/well), and incubated at least 16 hours to allow expression. The cells are incubated in a 37° C.+5% CO2 incubator for >16 hrs. A serially diluted inhibitor or test compound is prepared at 100× final concentration in 100% DMSO. The serially diluted inhibitor stock is prepared in PCR plates. 1 μL per well of 100× serially diluted inhibitor/test compound is added to the cells in 96-well plates that have been transiently transfected overnight and mixed by tapping the plate by hand. The plate is incubated at 37° C.+5% CO2 incubator overnight. A 1× solution of substrate mix (500× stock) and appropriate concentration of tracer is prepared in Opti-Mem. The cells are washed by setting a plate washer to the 96 well plate 5× in PBS pH 7.4 by adding 200 μL PBS each time. The cells are incubated at 37° C. for 2 hours. […], of the 1× Substrate-Tracer solution is added and the 96 well plate is gently tapped to mix. The plate on plate reader is read every hour for the next 6 hours. The binding assays of some ARCS are shown below. Compound 1-XXXII formed a covalent bond with PI3-kinase from about 5% to 20%. ARCS selected from the group consisting of Compounds 1-101, 1-102, 1-113, 1-114, 1-119, 1-120, 1-125 and 1-126 formed a covalent bond with PI3-kinase from about 80% to 100%. […]

| Structure (SMILES) | Binding |
| --- | --- |
| COC(=O)Nc1cc(C(F)(F)F)c(-c2nc(N3CCOCC3)c3cc(CN4CCN(C(=O)CNC(=O)C=C(C)C)CC4)cn3n2)cn1 [Compound 1-114] | +++ (>80%) |
| C=CC(=O)Nc1ccc(C(=O)N2CCN(Cc3cc4c(N5CCOCC5)nc(-c5cnc(NC(=O)OC)cc5C(F)(F)F)nn4c3)CC2)cc1 [Compound 1-171] | ++ (50-80%) |
| C=CC(=O)Nc1ccc(CCNCc2cc3c(N4CCOCC4)nc(-c4cnc(NC(=O)OC)cc4C(F)(F)F)nn3c2)cc1 [Compound 1-172] | ++ (50-80%) |
| COC(=O)Nc1cc(C(F)(F)F)c(-c2nc(N3CCOCC3)c3cc(CN4CCN(C(=O)CCC(=O)C=C(C)C)CC4)cn3n2)cn1 [Compound 1-113] | +++ (>80%) |
| C=CC(=O)NCC(=O)N1CCN(Cc2cc3c(N4CCOCC4)nc(-c4cnc(NC(=O)OC)cc4C(F)(F)F)nn3c2)CC1 [Compound 1-102] | +++ (>80%) |
| COC(=O)Nc1cc(C(F)(F)F)c(-c2nc(N3CCOCC3)c3cc(CN4CCN(C(=O)CNC(=O)/C=C/CN(C)C)CC4)cn3n2)cn1 [Compound 1-120] | +++ (>80%) |
| C=CC(=O)CCC(=O)N1CCN(Cc2cc3c(N4CCOCC4)nc(-c4cnc(NC(=O)OC)cc4C(F)(F)F)nn3c2)CC1 [Compound 1-101] | +++ (>80%) |
| CC#CC(=O)CCC(=O)N1CCN(Cc2cc3c(N4CCOCC4)nc(-c4cnc(NC(=O)OC)cc4C(F)(F)F)nn3c2)CC1 [Compound 1-125] | +++ (>80%) |
| CC#CC(=O)NCC(=O)N1CCN(Cc2cc3c(N4CCOCC4)nc(-c4cnc(NC(=O)OC)cc4C(F)(F)F)nn3c2)CC1 [Compound 1-126] | +++ (>80%) |
| COC(=O)Nc1cc(C(F)(F)F)c(-c2nc(N3CCOCC3)c3cc(CN4CCN(C(=O)CCC(=O)/C=C/CN(C)C)CC4)cn3n2)cn1 [Compound 1-119] | +++ (>80%) |
